Results on three compounds are retold here after patent US20160151412A1, “COMBINATION OF XENON WITH AN NMDA RECEPTOR ANTAGONIST FOR FIGHTING A NEURODEGENERATIVE DISEASE” (L'AIR LIQUIDE, SOCIETE ANONYME POUR L'ETUDE ET …, priority 2013, published 2016).

The test system of this experiment is rat cortex cultures (cortical neurons). Nature of the experiment: Neuronal survival (MAP-2 positive cell counts) in rat cortex cultures with PDC-induced chronic cortical degeneration under controlled gas atmosphere. Details: key to Neuronal survival: +++=reference level; ++: a favorable response, synonymous with a decrease in neuronal cell death in the presence of the treatments of interest; +: a favorable response, synonymous with a decrease in neuronal cell death in the presence of the treatments of interest; an unfavorable response is represented by a “−” sign, synonymous with an increase in neuronal death. It counts as cell-based. As for the experimental part: Cultures are prepared from rat embryo cortex taken from Wistar rates, on day 15.5 of gestation. The method for obtaining cortex cultures comprises the preparation of a homogeneous cell suspension by mechanical, i.e., non-enzymatic, dissociation of embryonic tissue using Leibovitz's L15 medium (Sigma Aldrich). Aliquots of this suspension are added to Nunc 48-well plates coated beforehand with a thin layer of polyethylenimine (1 mg/ml, borate buffer, pH 8.3) to allow neuronal cells to adhere (see Toulorge et al., Faseb J, 2011). The seeding density is between about 20,000 and 30,000 cells/cm^2. The cortex cultures are maintained in Neurobasal culture medium containing an […] B27 cocktail, N2 supplement, glutamine (2 mM) and a penicillin/streptomycin cocktail (see Nafia et al., J Neurochem, 2008). The medium and the supplement are available from Life Technologies. Six hours after placing in culture, 0.5 μM of the antimitotic cytarabine (Sigma Aldrich) is added to limit the proliferation of astrocytes. Until the moment when the effects of the gases of interest are evaluated, the cultures are placed in a conventional enclosure thermostated at 37° C., wherein CO2 is maintained at 5% by volume and the atmosphere is saturated with water. The culture medium is not changed during the culture period. The degenerative process is triggered by applying a glutamate reuptake system blocker, PDC (Zuiderwijk et al., Europ J Pharmacol, 1994). The NMDA receptor blocker, memantine, is added to the cultures before the application of PDC. These two products (PDC and memantine) are from RD Systems. Once the pharmacological treatments are carried out, the multi-well plates containing the cells in culture and the plate used for humidification of the internal compartment of the chamber are placed on a metal base that receives the Plexiglas incubation chamber. The two parts (base and Plexiglas chamber) are screwed together in a joined manner. A gas mixture of interest comprising (% by volume): 20% O2, 5% CO2 and 75% of the gas tested is then injected into the incubation chamber, with inlet and outlet valves open, while controlling the outlet flow by means of a flowmeter. The gases tested are nitrogen and xenon. The reference outlet flow, set for air at 10 liters/minute, is corrected as a function of the density of the mixture used. When the CO2 measurement at the outlet reaches 5%, the injection of the gas mixture is stopped and the chamber is completely sealed by closing the inlet and outlet valves. The exposure chamber is then placed in a 37° C. enclosure throughout the experimental protocol. After breaking the seal by opening the inlet and outlet valves and unscrewing the chamber from its base, the cultures are fixed with 4% formaldehyde in PBS for 12 minutes and then incubated at 4° C. with a monoclonal anti-MAP-2 antibody (dilution 1:200; clone AP-20; Sigma-Aldrich) for 3 days. This antibody is detected with an anti-mouse secondary antibody coupled with cyanine-3 (Sigma Aldrich; dilution 1:1000 in PBS). Image capturing is carried out with the 10× objective using a Nikon TE-300 inverted microscope equipped with an ORCA-ER cooled digital camera and HCl image capturing software (Hamamatsu). […] The cultures are then collected for fixing and analysis. Neuronal survival is quantified in the various experimental conditions tested by counting the number of cell bodies immunopositive for the pan-neuronal marker MAP-2.

As for `O=C(O)[C@H]1CN[C@H](C(=O)O)C1` (relative stereo) [PDC, L-trans-pyrrolidine-2,4-dicarboxylic acid], for the setting “PDC 30 μM, 75% N2, days 12-16”, the Neuronal survival entry is given as “−”. Moreover, where the note is “PDC 30 μM, 75% nitrogen”, the “loss of cortical neuronal cells” value is on record as “about 85%”. For the setting “PDC 30 μM, 75% nitrogen, % of cultures not treated with PDC under 75% nitrogen”, the survival rate came to 15.9%.

For `[Xe]` [Xe, xenon], the Neuronal survival entry by setting is: (PDC 30 μM, 75% Xe, days 12-16) “++”; (no PDC, 20% O2 + 5% CO2 + 75% Xe, days 12-16, day-16 cortex cultures) “+++”. Under “PDC 30 μM, 75% xenon without memantine, n=6”, the “effect on neuronal survival versus nitrogen-alone condition (ANOVA, Student-Newman-Keuls, p<0.05)” value was “significantly superior to that of the nitrogen-alone condition”.

As for `CC12CC3CC(C)(C1)CC(N)(C3)C2` [memantine], the “effect on neuronal survival” value (PDC 30 μM + memantine 0.1 μM alone, 75% nitrogen) is recorded as “no significant effect”. Moreover, the Neuronal survival entry was “−” (PDC 30 μM + memantine 0.1 μM, 75% N2, days 12-16); “++” (PDC 30 μM + memantine 1 μM, 75% N2, days 12-16); “+++” (PDC 30 μM + memantine 10 μM, 75% N2, days 12-16). Also, the survival rate (PDC 30 μM + memantine 1 μM by itself, 75% nitrogen) is listed as 54.6%. Further, under “PDC 30 μM + memantine 10 μM itself, 75% nitrogen”, the neuronal cells saved result was “more than 90%”.
